Data published in patent US20240285773A1, “METHODS OF TREATING MYELODYSPLASTIC SYNDROME AND MONITORING THE TREATMENT” (Geron Corporation, priority 2023, published 2024).
“And” between values parts separate entries of the source, which are not always exact repeats. Identical values can stand only once. [nps] = N3'→P5' thiophosphoramidate linkage; {Palm} = palmitoyl lipid

Legend:
[1] = tested on: RBC transfusion-dependent patients with IPSS low or intermediate-1 risk MDS; assay: Phase 3 trial: RBC transfusion independence (RBC-TI); format: in vivo, human; settings: for TI duration, median: Kaplan-Meier
Procedure: Patients were randomly assigned (based on a computer-generated schedule) in a 2:1 ratio to receive imetelstat or placebo, administered intravenously every 4 weeks until treatment discontinuation; crossover was not allowed. Randomization was stratified by prior RBC transfusion burden (≥4 to ≤6 or >6 units over an 8-week period during 16 weeks prior to randomization) and IPSS risk group (low or intermediate-1 risk). The starting dose of imetelstat was 7.5 mg/kg every four weeks. If a patient developed grade 3 or 4 hematologic and nonhematologic toxicities, dosing was held and, if necessary, reduced (Tables 2-4).
The primary end point was rate of RBC-TI for 8 consecutive weeks or longer. Key secondary end points included rate of 24-week TI, duration of TI, and the rate of hematologic response (hematologic improvement-erythroid [HI-E], based on modified International Working Group [IWG] 2006 criteria, and HI-E per revised IWG 2018). Additional secondary end points included relative change in number of RBC transfusions received by patients, relative change in hemoglobin, and safety. The changes in mutational status and in patient-reported fatigue over time (assessed by the Functional Assessment of Chronic Illness Therapy [FACIT] Fatigue Scale) were exploratory end points. Subgroup analyses were performed including baseline presence or absence of RS, prior RBC transfusion burden (≥4 to ≤6 or >6 RBC units/8-weeks during a 16-week period prior to randomization), and low or intermediate-1 IPSS risk categories. Subgroup analyses were also performed, including baseline mutation status as well as telomerase activity (TA), telomere lengths (TL), and human telomerase reverse transcriptase (hTERT) levels. Peripheral blood hematology, bone marrow evaluation, mutation assessment, and cytogenetic evaluation were performed centrally and responses assessed by an independent review committee (IRC). Rate of 1-year RBC-TI was reported as a post hoc analysis.
The data cutoff date for this primary analysis was 1 year after the last patient was randomized. All the efficacy analyses for primary and key secondary end points were conducted in the intent-to-treat population. […] The percentages of patients with a response for the two treatment groups were compared with a stratified Cochran-Mantel-Haenszel test at a two-sided significance level of 0.05 adjusting for stratification factors, prior RBC transfusion burden, and IPSS risk category low or intermediate-1. Multiplicity was accounted for by a sequential gatekeeping approach for the primary and key secondary end points, which were tested sequentially in the prespecified order of 8-week TI, followed by 24-week TI. Durations of RBC-TI were calculated by Kaplan-Meier method. Safety analyses were conducted in the safety population (all patients who received ≥1 dose of trial medication).
Treatment: In the patients from imetelstat treatment group, imetelstat sodium was administered as a 2-hour IV infusion every 4 weeks at 7.5 mg/kg. Supportive care, including RBC and platelet transfusions, myeloid growth factors (e.g., G-CSF (granulocyte colony stimulating factor)), and iron chelation therapy was administered as needed on study per investigator discretion. Control group received corresponding treatment without imetelstat.
End points and Analysis: • Primary end point: 8-week RBC TI. Proportion of patients without any RBC transfusion for at least eight consecutive weeks since entry to the trial (8-week TI). • Key secondary end points: • 24-week RBC TI; proportion of patients without any RBC transfusion for at least 24 consecutive weeks since entry to the trial (24-week TI). • Duration of TI; • Hematologic improvement-Erythroid (HI-E).
The 8-week RBC-TI rate was the proportion of patients without any RBC transfusion during any consecutive 8 weeks (56 days) starting from Study Day 1 until subsequent anti-cancer therapy, if any. […]

bone marrow RS cells = assay: Reduction in bone marrow ring sideroblasts; set-up: species or system human; settings: in vivo
Source text: FIG. 20. […] Also, RBC-TI responders were higher in patients achieving ≥50% reduction in central bone marrow RS.

[2] = mutated transcription regulation genes
[3] = poor-prognosis genes mutated at baseline

Substance: Imetelstat: first-in-class telomerase inhibitor; synthetic lipid-conjugated 13-mer oligonucleotide N3′→P5′-thiophosphoramidate (TAGGGTTAGACAA; all [nps], 5' {Palm}, sugars by position and methylation of C not given here)
- Difference in median RBC-TI duration vs placebo ([1]; 8-week TI responders): 38.3 week
- Hazard ratio, duration of RBC-TI vs placebo ([1]; 8-week TI responders): 0.23
- TI duration, median ([1]; 8-week TI responders): 51.6 weeks
- TI duration, median ([1]; 8-week TI responders, listed as imetelstat): 51.6 weeks and 52 weeks
- ≥8-week TI rate ([1]; >1 baseline mutation): 42.7%
- ≥24-week TI rate ([1]; >1 baseline mutation): 26.7%
- ≥8-week TI rate ([1]; >2 baseline mutations): 45.5%
- ≥24-week TI rate ([1]; >2 baseline mutations): 33.3%
- ≥8-week TI rate ([1]; >3 baseline mutations): 55.6%
- ≥24-week TI rate ([1]; >3 baseline mutations): 33.3%
- 8-week TI response ([1]; ASXL1 mutations): 5/18
- 8-week TI response rate ([1]; ASXL1 mutations): (27.8) %
- ≥24-week TI rate ([1]; ASXL1 mutations): 11.1%
- 8-week TI response rate ([1]; ASXL1 mutations, listed as imetelstat): 27.8%
- ≥8-week TI rate ([1]; CUX1 mutations): 35.7%
- ≥24-week TI rate ([1]; CUX1 mutations): 14.3%
- ≥8-week TI rate ([1]; DNMT3A mutations): 31.6%
- ≥24-week TI rate ([1]; DNMT3A mutations): 26.3%
- 8-week TI response ([1]; ETV6 mutations): 1/2
- 8-week TI response rate ([1]; ETV6 mutations): (50.0) %
- 8-week TI response rate ([1]; ETV6 mutations, listed as imetelstat): 50%
- 8-week RBC-TI rate ([1]; IPSS intermediate-1 risk): 40%
- 8-week RBC-TI rate ([1]; IPSS low risk): 40%
- 8-week TI rate ([1]; ITT N=118): 39.8% and 40%
- 16-week TI rate ([1]; ITT N=118): 31.4%
- 16-week TI, patients ([1]; ITT N=118): 37 n
- 24-week TI rate ([1]; ITT N=118): 28%
- 24-week TI, patients ([1]; ITT N=118): 33 n
- ≥1-year TI rate ([1]; ITT N=118): 17.8% and 18%
- ≥1-year TI, patients ([1]; ITT N=118): 21 n
- 8-week TI, patients ([1]; ITT N=118, 7.5 mg/kg IV every 4 weeks): 47 n
- 8-week TI response ([1]; RUNX1 mutations): 0/2
- 8-week TI response rate ([1]; RUNX1 mutations): (0) %
- ≥8-Week RBC-TI ([1]; SF3B1 hot-spot A744P): 100%
- ≥8-Week RBC-TI ([1]; SF3B1 hot-spot E622D): 25.0%
- ≥8-Week RBC-TI ([1]; SF3B1 hot-spot E783K): 50.0%
- ≥8-Week RBC-TI ([1]; SF3B1 hot-spot H662Q/N/D/Y): 58.3%
- ≥8-Week RBC-TI ([1]; SF3B1 hot-spot K666R/T/Q/N): 33.3%
- ≥8-Week RBC-TI ([1]; SF3B1 hot-spot K700E): 43.9%
- ≥8-Week RBC-TI ([1]; SF3B1 hot-spot R625C/L/G): 57.1%
- ≥8-Week RBC-TI ([1]; SF3B1 hot-spot T663P): 100%
- ≥8-week TI rate ([1]; TET2 mutations): 50%
- ≥24-week TI rate ([1]; TET2 mutations): 40%
- 8-week TI response ([1]; TP53 mutations): 2/2
- 8-week TI response rate ([1]; TP53 mutations): (100) %
- ≥8-week TI rate ([1]; baseline SF3B1 mutations): 48.8%
- ≥24-week TI rate ([1]; baseline SF3B1 mutations): 35.4%
- 8-week RBC-TI responders with a single continuous RBC-TI period ([1]; in vivo): 83%
- 8-week TI responders who went on to achieve 24-week TI ([1]; in vivo): Approximately 70%
- ≥1-year TI among ≥8-week TI responders ([1]; in vivo): 44.7% and 45%
- ≥1-year TI among ≥24-week TI responders ([1]; in vivo): 63.6% and 64%
- ≥8-week TI rate ([1]; mutated RNA spliceosome genes): 43.8%
- ≥24-week TI rate ([1]; mutated RNA spliceosome genes): 30.2%
- ≥8-week TI rate ([1]; mutated epigenetic modifiers): 37.7%
- ≥24-week TI rate ([1]; mutated epigenetic modifiers): 27.5%
- ≥8-week TI rate ([1]; mutated receptors/kinases): 80.0%
- ≥24-week TI rate ([1]; mutated receptors/kinases): 80.0%
- ≥8-week TI rate [1, 2]: 40.0%
- ≥24-week TI rate [1, 2]: 20.0%
- Median TI duration ([1]; patients who achieved 24-week TI): 80.0 weeks
- 8-week RBC-TI rate ([1]; patients with RS): 45%
- 24-week RBC-TI rate ([1]; patients with RS): 33%
- Difference vs placebo in TI ≥24 weeks ([1]; patients with RS): 28%
- 8-week RBC-TI, patients ([1]; patients with RS (of 73)): 33 patients
- 8-week RBC-TI rate ([1]; patients without RS): 32%
- 24-week RBC-TI rate ([1]; patients without RS): 20%
- Difference vs placebo in TI ≥24 weeks ([1]; patients without RS): 21%
- 8-week RBC-TI, patients ([1]; patients without RS (of 44)): 14 patients
- 8-week TI response [1, 3]: 7/22
- 8-week TI response rate [1, 3]: (31.8) %
- ≥24-week TI rate [1, 3]: 9.1%
- 8-week TI response rate ([1]; poor-prognosis genes mutated at baseline, listed as imetelstat): 31.8%
- 8-week RBC-TI rate ([1]; prior burden >6 units/8 weeks): 34%
- 8-week RBC-TI, patients ([1]; prior burden >6 units/8 weeks (of 56)): 19 patients
- 8-week RBC-TI rate ([1]; prior burden ≥4 to ≤6 units/8 weeks): 45%
- 8-week RBC-TI, patients ([1]; prior burden ≥4 to ≤6 units/8 weeks (of 62)): 28 patients
- Median duration of TI ([1]; ≥1-year TI responders): 123 weeks
- Patients achieving ≥50% reduction in bone marrow RS cells (bone marrow RS cells): 41%
